This passage reports IC50 results from US9120749B2, “Quinoline derivatives and MELK inhibitors containing the same” (ONCOTHERAPY SCIENCE, INC., priority 2010, dated 2015).

Where two headings read alike, the source gives them in different places.

One may read the IC50 as the midpoint of a concentration-inhibition curve.

The test system of one experiment is DU4475 cells. In words: Cell-based assay: anti-proliferative activity, Cell Counting Kit-8, 72 hours (DU4475). A general note: Tetrazolium assays rely on reduction of a dye to a coloured formazan, in cell work by metabolically active cells.
The subject of a further experiment is A549 cells. Nature of the experiment: Cell-based assay: anti-proliferative activity, Cell Counting Kit-8, 72 hours (A549). The note with it: 72 hours. The procedure, abridged: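 A549 cells were seeded in 96-well plates and exposed to candidate inhibitors for 72 hours. Cell growth was then measured with Cell Counting Kit-8, and IC50 values were calculated from the resulting growth data.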

The next experiment addresses MELK (Homo sapiens, UniProt Q14680). Nature of the experiment: Kinase assay: MELK activity, phosphorylation of FITC-labeled histone H3 peptide measured by IMAP fluorescence polarization. The format is biochemical. The conditions noted are these: read-out: IC50 (μM) (kinase assay). The procedure, abridged:
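Substrate is FITC-labeled histone H3 peptide. Compounds come from a 12.5 mM DMSO stock, diluted so assay DMSO is 1%. The stop step adds threefold-volume progressive binding solution, followed by 0.5 h at room temperature and an FP read.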
(In fluorescence polarisation assays a small probe gives low polarisation when free and higher when bound to something large.)

A further experiment has as its system T47D cells. Nature of the experiment: Cell-based assay: anti-proliferative activity, Cell Counting Kit-8, 72 hours (T47D). The note with it: Homo sapiens, T47D, 72 h. The procedure, abridged:
(§1)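 IC50 values come from CCK-8 growth measurements taken 72 hours post-treatment of plated cells with test compounds. Expression of MELK across the panel was assessed through immunoblot of unfractionated lysates.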

The next experiment deals with HT-1197 cells. In words: Cell-based assay: anti-proliferative activity, Cell Counting Kit-8, 72 hours (HT-1197, negative control without MELK expression). The conditions noted are these: HT1197 cells (negative control, no MELK expression), 72 hours. A digest of the protocol: as §1

MELK, sequence (Q14680 whole entry, looked up): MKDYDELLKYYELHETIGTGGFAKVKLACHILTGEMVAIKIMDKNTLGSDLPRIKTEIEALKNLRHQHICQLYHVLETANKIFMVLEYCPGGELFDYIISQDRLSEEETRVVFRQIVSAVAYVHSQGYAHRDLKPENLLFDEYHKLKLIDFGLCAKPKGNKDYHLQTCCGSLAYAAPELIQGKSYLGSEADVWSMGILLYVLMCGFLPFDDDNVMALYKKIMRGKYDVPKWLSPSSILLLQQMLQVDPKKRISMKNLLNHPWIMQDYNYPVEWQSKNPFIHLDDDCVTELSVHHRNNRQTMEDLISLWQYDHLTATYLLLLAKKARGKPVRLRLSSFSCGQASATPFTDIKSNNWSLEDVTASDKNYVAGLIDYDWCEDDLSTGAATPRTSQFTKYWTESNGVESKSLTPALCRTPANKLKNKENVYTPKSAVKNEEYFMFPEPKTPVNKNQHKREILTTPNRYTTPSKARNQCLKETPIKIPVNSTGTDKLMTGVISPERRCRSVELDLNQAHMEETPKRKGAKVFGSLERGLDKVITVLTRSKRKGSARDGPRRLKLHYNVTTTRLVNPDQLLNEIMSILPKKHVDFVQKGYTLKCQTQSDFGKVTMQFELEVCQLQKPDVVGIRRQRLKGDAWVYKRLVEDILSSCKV

Consider `COc1cc(-c2ccc3ncc(C(=O)C4CC4)c(Nc4ccc(CN5CCN(C)CC5)nc4)c3c2)cc(Cl)c1O` [Example 683, (6-(3-chloro-4-hydroxy-5-methoxyphenyl)-4-(6-((4-methylpiperazin-1-yl)methyl)pyridin-3-ylamino)quinolin-3-yl)(cyclopropyl)methanone], for which the concentration for half-maximal inhibition (IC50) worked out at 1.3 µM in the experiment on DU4475 cells (Homo sapiens, DU-4475, 72 h); 1.2 µM with A549 cells (Homo sapiens, A549, 72 h); 0.016 µM at MELK; 0.69 µM with T47D cells; 9.8 µM in the experiment on HT-1197 cells (Homo sapiens, HT1197, 72 h).
On the same counts, the results for `O=C(c1cnc2ccc(-c3cc(F)c(O)c(Cl)c3)cc2c1Nc1ccc(NC2CCNC2)nc1)C1CC1` (stereo not drawn) [Example 667, (6-(3-chloro-5-fluoro-4-hydroxyphenyl)-4-(6-(pyrrolidin-3-ylamino)pyridin-3-ylamino)quinolin-3-yl)(cyclopropyl)methanone] are 0.077 µM, 7.7 µM, 0.01 µM, 0.17 µM and 10 µM.
As for `CN1CCN(Cc2ccc(Nc3c(C(=O)C4CC4)cnc4ccc(-c5cc(Cl)c(O)c(Cl)c5)cc34)cn2)CC1` [Example 682, cyclopropyl(6-(3,5-dichloro-4-hydroxyphenyl)-4-(6-((4-methylpiperazin-1-yl)methyl)pyridin-3-ylamino)quinolin-3-yl)methanone], the half-inhibitory concentration (IC50) was 0.32 µM with DU4475 cells (Homo sapiens, DU-4475, 72 h); 0.7 µM with A549 cells (Homo sapiens, A549, 72 h); 0.018 µM on MELK; 0.55 µM with T47D cells; 14 µM in the experiment with HT-1197 cells (Homo sapiens, HT1197, 72 h).
Regarding `N[C@@H]1CCCN(c2ccc(Nc3c(C(=O)C4CC4)cnc4ccc(-c5cc(F)c(O)c(Cl)c5)cc34)cn2)C1` [Example 651, (R)-(4-(6-(3-aminopiperidin-1-yl)pyridin-3-ylamino)-6-(3-chloro-5-fluoro-4-hydroxyphenyl)quinolin-3-yl)(cyclopropyl)methanone], the IC50 turned out to be 0.0071 µM in the experiment on DU4475 cells (Homo sapiens, DU-4475, 72 h); 0.0075 µM in the experiment on A549 cells (Homo sapiens, A549, 72 h); 0.00076 µM at MELK; 0.0054 µM in the experiment with T47D cells; 0.12 µM with HT-1197 cells (Homo sapiens, HT1197, 72 h).
Take `NC1CCN(c2cc(Nc3c(C(=O)C4CC4)cnc4ccc(-c5cc(Cl)c(O)c(Cl)c5)cc34)ccn2)CC1` [Example 735, (4-(2-(4-aminopiperidin-1-yl)pyridin-4-ylamino)-6-(3,5-dichloro-4-hydroxyphenyl)quinolin-3-yl)(cyclopropyl)methanone]: the half-inhibitory concentration (IC50) in the experiment with DU4475 cells (Homo sapiens, DU-4475, 72 h) amounted to 0.5 µM; in the experiment on A549 cells (Homo sapiens, A549, 72 h), 3.5 µM; on MELK, 0.0041 µM; in the experiment on T47D cells, 1 µM; with HT-1197 cells (Homo sapiens, HT1197, 72 h), 20 µM.
In the case of `N[C@H]1CCCN(c2ccc(Nc3c(C(=O)C4CC4)cnc4ccc(-c5cc(Cl)c(O)c(Cl)c5)cc34)cn2)C1` [Example 646, (S)-(4-(6-(3-aminopiperidin-1-yl)pyridin-3-ylamino)-6-(3,5-dichloro-4-hydroxyphenyl)quinolin-3-yl)(cyclopropyl)methanone], the IC50 worked out at 0.0035 µM in the experiment on DU4475 cells; 0.022 µM with A549 cells; 0.0011 µM on MELK; 0.02 µM with T47D cells; 0.56 µM in the experiment on HT-1197 cells (Homo sapiens, HT1197, 72 h).
On to `CC(=O)c1cnc2ccc(-c3cc(Cl)c(O)c(Cl)c3)cc2c1Nc1ccc(CCN(C)C)cc1` [Example 744, 1-(6-(3,5-dichloro-4-hydroxyphenyl)-4-(4-(2-(dimethylamino)ethyl)phenylamino)quinolin-3-yl)ethanone], for which the half-inhibitory concentration (IC50) with DU4475 cells (Homo sapiens, DU-4475, 72 h) is 0.031 µM; in the experiment on A549 cells (Homo sapiens, A549, 72 h), 0.082 µM; at MELK, 0.0017 µM; with T47D cells, 0.11 µM; in the experiment on HT-1197 cells (Homo sapiens, HT1197, 72 h), 0.43 µM.
In the case of `CC(=O)c1cnc2ccc(-c3cc(F)c(O)c(Cl)c3)cc2c1Nc1ccc(N2CCCC(N)C2)nc1` (stereo not drawn) [Example 732, 1-(4-(6-(3-aminopiperidin-1-yl)pyridin-3-ylamino)-6-(3-chloro-5-fluoro-4-hydroxyphenyl)quinolin-3-yl)ethanone], the IC50 in the experiment with DU4475 cells (Homo sapiens, DU-4475, 72 h) came to 0.0099 µM; in the experiment with A549 cells (Homo sapiens, A549, 72 h), 0.0094 µM; at MELK, 0.0017 µM; in the experiment on T47D cells it was 0.0056 µM; in the experiment with HT-1197 cells it was 0.18 µM.
For `CCC(=O)c1cnc2ccc(-c3cc(Cl)c(O)c(Cl)c3)cc2c1Nc1ccc(N2CCN(C)CC2)nc1` [Example 737, 1-(6-(3,5-dichloro-4-hydroxyphenyl)-4-(6-(4-methylpiperazin-1-yl)pyridin-3-ylamino)quinolin-3-yl)propan-1-one], the IC50 amounted to 0.27 µM with DU4475 cells (Homo sapiens, DU-4475, 72 h); 0.29 µM in the experiment with A549 cells (Homo sapiens, A549, 72 h); 0.055 µM at MELK; 0.31 µM in the experiment on T47D cells; 10 µM with HT-1197 cells (Homo sapiens, HT1197, 72 h).
For the molecule `CC(C)C(=O)c1cnc2ccc(-c3cc(Cl)c(O)c(Cl)c3)cc2c1Nc1ccc(CN(C)C)cc1` [Example 641, 1-(6-(3,5-dichloro-4-hydroxyphenyl)-4-(4-((dimethylamino)methyl)phenylamino)quinolin-3-yl)-2-methylpropan-1-one], the IC50 is 0.097 µM in the experiment on DU4475 cells (Homo sapiens, DU-4475, 72 h); 0.23 µM in the experiment on A549 cells (Homo sapiens, A549, 72 h); 0.0076 µM on MELK; 0.22 µM in the experiment with T47D cells; 0.74 µM with HT-1197 cells (Homo sapiens, HT1197, 72 h).
Take `O=C(c1cnc2ccc(-c3cc(Cl)c(O)c(Cl)c3)cc2c1Nc1ccc(NC2CCNC2)nc1)C1CC1` (stereo not drawn) [Example 666, cyclopropyl(6-(3,5-dichloro-4-hydroxyphenyl)-4-(6-(pyrrolidin-3-ylamino)pyridin-3-ylamino)quinolin-3-yl)methanone]: the half-maximal inhibitory concentration (IC50) with DU4475 cells (Homo sapiens, DU-4475, 72 h) was 0.071 µM; with A549 cells (Homo sapiens, A549, 72 h), 10 µM; at MELK, 0.024 µM; in the experiment on T47D cells, 0.34 µM; in the experiment on HT-1197 cells (Homo sapiens, HT1197, 72 h), 10 µM.
In the case of `CC(=O)c1cnc2ccc(-c3cc(Cl)c(O)c(Cl)c3)cc2c1Nc1ccc(N2CCNCC2)nc1` [Example 702], the 50% inhibitory concentration (IC50) in the experiment on DU4475 cells (Homo sapiens, DU-4475, 72 h) was found to be 0.044 µM; in the experiment with A549 cells (Homo sapiens, A549, 72 h), 0.14 µM; at MELK, 0.0014 µM; with T47D cells it was 0.046 µM; in the experiment on HT-1197 cells (Homo sapiens, HT1197, 72 h), 2.4 µM.
`CN(C)C1CCN(C[C@H]2CC[C@H](Nc3c(C(=O)C4CC4)cnc4ccc(-c5cc(F)c(O)c(Cl)c5)cc34)CC2)C1` (stereo partly drawn) [Example 662]: the IC50 in the experiment with DU4475 cells (Homo sapiens, DU-4475, 72 h) came out at 0.14 µM; with A549 cells (Homo sapiens, A549, 72 h), 0.15 µM; at MELK, 0.004 µM; in the experiment on T47D cells, 0.19 µM; in the experiment with HT-1197 cells (Homo sapiens, HT1197, 72 h) it was 0.95 µM.
On to `CN(CCO)C[C@H]1CC[C@H](Nc2c(C(=O)C3CC3)cnc3ccc(-c4cc(F)c(O)c(Cl)c4)cc23)CC1` [Example 632, (6-(3-chloro-5-fluoro-4-hydroxyphenyl)-4-((trans-4-(((2-hydroxyethyl)(methyl)amino)methyl)cyclohexyl)amino)quinolin-3-yl)(cyclopropyl)methanone], for which the IC50 came to 0.069 µM in the experiment with DU4475 cells (Homo sapiens, DU-4475, 72 h); 0.1 µM in the experiment on A549 cells (Homo sapiens, A549, 72 h); 0.0031 µM on MELK; 0.069 µM in the experiment with T47D cells; 0.72 µM in the experiment on HT-1197 cells (Homo sapiens, HT1197, 72 h).
Take `N[C@@H]1CCCN(c2ccc(Nc3c(C(=O)C4CC4)cnc4ccc(-c5cc(Cl)c(O)c(Cl)c5)cc34)cn2)C1` [Example 650, (R)-(4-(6-(3-aminopiperidin-1-yl)pyridin-3-ylamino)-6-(3,5-dichloro-4-hydroxyphenyl)quinolin-3-yl)(cyclopropyl)methanone]: the IC50 is 0.0072 µM with DU4475 cells (Homo sapiens, DU-4475, 72 h); 0.015 µM in the experiment with A549 cells (Homo sapiens, A549, 72 h); 0.001 µM at MELK; 0.0099 µM in the experiment with T47D cells; 0.32 µM in the experiment with HT-1197 cells (Homo sapiens, HT1197, 72 h).
